Laboratory results as given in patent US20080262009A1, “CRYSTALLINE POLYMORPHS OF N-(3-(DIMETHYLAMINO)PROPYL)-4-(4-(3-FLUORO-4-METHOXYPHENYL) PYRIMIDIN-2-YLAMINO) BENZENESULFONAMIDE AS ACETATE SALTS” (Wyeth, priority 2007, published 2008).

Experiments:
[1] = Water solubility
Description: HCl, phosphoric acid, tartaric acid, acetic acid, D-glucoronic acid and succinic acid were used to prepare pharmaceutically acceptable salts of compound 3.

[2] = Solubility in organic solvents / group 3 solvents; format: physicochemical

Row | Compound | Solubility in water ([1]; by a thermogravimeteric method) | water solubility (in words) ([1]; free base form, general statement) | solubility in THF, DMSO and DMF ([2]; THF, DMSO and DMF) | solubility in group 3 solvents, including water ([2]; group 3 solvents, including water) | solubility ([1]; water)
1 | COc1ccc(-c2ccnc(Nc3ccc(S(=O)(=O)NCCCN(C)C)cc3)n2)cc1F [compound 3] | not detectable | little to no | high | low | –
2 | CC(=O)O.COc1ccc(-c2ccnc(Nc3ccc(S(=O)(=O)NCCCN(C)C)cc3)n2)cc1F [acetate salt of compound 3] | – | – | – | – | 3500 µg/mL
